The values below come from patent US20240182508A1, “AMPHIPATHIC COMPOUND, PREPARATION METHOD THEREFOR, AND SURFACTANT COMPOSITION COMPRISING SAME” (priority 2022, published 2024).

Data set [1] can be described thus: CMC (critical micelle concentration) from surface tension by the stalagmometric method. It is filed as physicochemical. The note with it: graph of surface tension versus sample concentration. How it is done: The surface tension values of steviol bisglycoside (rebaudioside A) and steviol monoglycoside-acid, ester, and amide obtained in Examples 1, 4, and 5 were measured and compared at various concentrations using the stalagmometric method. In addition, through a graph of surface tension versus sample concentration, CMC was measured to be 5.14 mM (rebaudioside A), 1.1 mM (Example 1, steviolbioside), 0.15 mM (Example 4, rebaudioside B methyl ester), and 0.5 mM (Example 5, rebaudioside B n-hexylamide).

Data set [2] is described as follows: Foaming properties (foam maintained on standing, measuring cylinder). As to conditions: 10 mg in 5 ml distilled water, shaken 10 seconds. It is filed as physicochemical. The protocol: The foaming properties of steviol monoglycoside-ester obtained in Example 4 were confirmed. 5 ml of distilled water and 10 mg of steviol monoglycoside-ester obtained in Example 4 were mixed in a measuring cylinder to form micelles, then shaken for 10 seconds to generate foam, then allowed to stand at room temperature to compare the amount of foam.
Thereby, it was confirmed that about 50% of the foam was maintained after 15 minutes and about 30% of the foam was maintained after 30 minutes, based on the height of the foam.

Each structure is given as a SMILES string.

Compound `C=C1C[C@@]23CC[C@H]4[C@@](C)(CCC[C@@]4(C)C(=O)O)[C@@H]2CC[C@]1(O[C@@H]1O[C@H](CO)[C@@H](O)[C@H](O)[C@H]1O[C@@H]1O[C@H](CO)[C@@H](O)[C@H](O)[C@H]1O)C3` [Example 1, steviolbioside] had a CMC in data set [1] of 1.1 mM.

The compound `C=C1C[C@@]23CC[C@H]4[C@@](C)(CCC[C@@]4(C)C(=O)OC)[C@@H]2CC[C@]1(O[C@@H]1O[C@H](CO)[C@@H](O)[C@H](O[C@@H]2O[C@H](CO)[C@@H](O)[C@H](O)[C@H]2O)[C@H]1O[C@@H]1O[C@H](CO)[C@@H](O)[C@H](O)[C@H]1O)C3` [Example 4, rebaudioside B methyl ester] showed a CMC in data set [1] of 0.15 mM. The “foam maintained, based on the height of the foam” value in data set [2] (after 15 minutes at room temperature) is “about 50%”; in data set [2] (after 30 minutes at room temperature) it was “about 30%”.

`C=C1C[C@@]23CC[C@H]4[C@@](C)(CCC[C@@]4(C)C(=O)NCCCCCC)[C@@H]2CC[C@]1(O[C@@H]1O[C@H](CO)[C@@H](O)[C@H](O[C@@H]2O[C@H](CO)[C@@H](O)[C@H](O)[C@H]2O)[C@H]1O[C@@H]1O[C@H](CO)[C@@H](O)[C@H](O)[C@H]1O)C3` [Example 5, rebaudioside B n-hexylamide] returned a CMC in data set [1] of 0.5 mM.

The compound `C=C1C[C@@]23CC[C@H]4[C@@](C)(CCC[C@@]4(C)C(=O)O[C@@H]4O[C@H](CO)[C@@H](O)[C@H](O)[C@H]4O)[C@@H]2CC[C@]1(O[C@@H]1O[C@H](CO)[C@@H](O)[C@H](O[C@@H]2O[C@H](CO)[C@@H](O)[C@H](O)[C@H]2O)[C@H]1O[C@@H]1O[C@H](CO)[C@@H](O)[C@H](O)[C@H]1O)C3` [rebaudioside A, reference compound] yielded a CMC in data set [1] of 5.14 mM.
